Reference: patent US11065274B2, “Prevention and treatment for microbial infections” (University of Rochester, priority 2015, dated 2021)

Legend:
P. aeruginosa [1] = settings: P. aeruginosa wound; 2% agent in PEG (combination 1%+1%), twice a day for three days
Method: (§1) Treatments were twice a day for a total of three days, at which point the wound bacterial burden was measured.

[2] = tested on: Acinetobacter baumannii 983709
[3] = tested on: Enterococcus faecalis V583
P. aeruginosa [4] = tested on: P. aeruginosa
From the text: (§2) Dose response measures of the antimicrobial activity of various concentrations (0 to 8% active agent) were used to define the optimal concentration of each agent alone and in combination.

S. aureus [5] = tested on: S. aureus
From the text: as §2

[6] = tested on: Enterobacter cloacae Clinical Isolate
[7] = tested on: 48 hour established Pseudomonas aeruginosa biofilms
[8] = tested on: Klebsiella pneumoniae CKP4
[9] = tested on: Enterococcus faecium 824-05
[10] = tested on: 24 hour established A. baumannii biofilms
[11] = tested on: Pseudomonas aeruginosa PA01
[12] = tested on: Staphylococcus aureus UAMS-1
S. aureus [13] = settings: 2% agent (combination 1% silver sulfadiazine and 1% zinc pyrithione), 3 day
Method: as §1

[14] = 0 to 8% active agent (ZnPt ˜0.015 to 0.25%; combination 0.015% to 4%)

With zinc pyrithione [ZnPt] the “decrease in bacterial burden” value (P. aeruginosa [1]) was 1.2 log, the minimum inhibitory concentration ([2]; Acinetobacter baumannii) was 2 µg/mL and the MIC ([2]; Acinetobacter baumannii 983709) was 2 µg/mL. For the same substance, the MIC [3] was 2 µg/mL, the “dose response of antimicrobial activity in PEG ointment” value (shortened to “dose response”) (P. aeruginosa [4]; P. aeruginosa, 0 to 8% active agent (ZnPt ˜0.015 to 0.25%; combination 0.015% to 4%)) was “dose-dependent increase in antimicrobial activity” and the “antimicrobial activity in PEG-formulation” value (P. aeruginosa [4]; Pseudomonas aeruginosa) was “exhibited antimicrobial activity”. The “antimicrobial activity in PEG-formulation” value (S. aureus [5]) was “exhibited antimicrobial activity”, the “dose response” value (S. aureus [5]; [14]) was “dose-dependent increase in antimicrobial activity” and the minimum inhibitory concentration ([6]; Enterbacter cloacae) was 4 µg/mL. For the same substance, the MIC ([6]; Enterobacter cloacae Clinical Isolate) was 4 µg/mL, the “reduction in biofilm associated Pseudomonas aeruginosa” value ([7]; 50 μM (15.8 μg ml^−1), 48 hour biofilm) was 1 log and the “antibiofilm activity toward P. aeruginosa” value ([7]; low concentrations (4 to 64 μg ml^−1)) was “comparable to that of silver sulfadiazine”. The minimum inhibitory concentration ([8]; Klebsiella pneumoniae) was 2 µg/mL, the MIC ([8]; Klebsiella pneumoniae CKP4) was 2 µg/mL and the minimum inhibitory concentration ([9]; Enterococcus faecium) was 2 µg/mL. The MIC ([9]; Enterococcus faecium 824-05) was 2 µg/mL, the “antibiofilm activity toward A. baumannii biofilms” value ([10]; comparison of agents alone and in combination) was “improved activity” and the “reduction in biofilm associated A. baumannii” value ([10]; highest concentration tested (128 μg ml^−1; combination 64 μg ml^−1 of each agent)) was 3.5 log. The MIC ([11]; Pseudomonas aeruginosa PA01) was 16 µg/mL, the minimum inhibitory concentration ([11]; planktonic P. aeruginosa) was 16 µg/mL and the “dose response” value (A. baumannii; [14]) was “dose-dependent increase in antimicrobial activity”. The “antimicrobial activity in PEG-formulation” value (A. baumannii; 1% agent or 1% combination (0.5% each)) was “exhibited antimicrobial activity”, the minimum inhibitory concentration ([12]; Staphylococcus aureus) was 2 µg/mL and the MIC ([12]; Staphylococcus aureus UAMS-1) was 2 µg/mL. For the same substance, the minimum inhibitory concentration (Escherichia coli 8307; Escherichia coli) was 1 µg/mL, the MIC (Escherichia coli 8307; Escherichia coli 8307) was 1 µg/mL and the “animals completed cleared of S. aureus” value (S. aureus [13]) was 6 of 10.
